Values joined by “and” are separate entries in the source; they are usually repeats but may differ in a detail not shown here. Equal values may be shown once.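 Briefly, cells in 96-well plates were exposed to five compound concentrations for 48 h, and endpoints were estimated by linear interpolation. GI50 is the concentration that inhibits growth by half. Definition used: TGI = concentration required for complete inhibition of growth.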
Legend:
Test in all cases: growth of human tumour cells (NCI), 48 h
TK-10 renal = tested on: TK-10 renal
IGROV1 ovarian = tested on: IGROV1 ovarian
NCI-H23 lung = tested on: NCI-H23 lung
OVCAR-8 ovarian = tested on: OVCAR-8 ovarian
SF-268 CNS = tested on: SF-268 CNS
HCT-116 colon = tested on: HCT-116 colon
OVCAR-3 ovarian = tested on: OVCAR-3 ovarian
SK-MEL-5 melanoma = tested on: SK-MEL-5 melanoma
MALME-3M melanoma = tested on: MALME-3M melanoma
T-47D breast = tested on: T-47D breast
SR leukemia = tested on: SR leukemia
MDA-MB-231 breast = tested on: MDA-MB-231 breast
MDA-N = tested on: MDA-N
MCF7 breast = tested on: MCF7 breast
A549 NSCLC = tested on: A549 NSCLC
COLO 205 colon = tested on: COLO 205 colon
NCI/ADR-RES ovarian = tested on: NCI/ADR-RES ovarian
HL-60(TB) leukemia = tested on: HL-60(TB) leukemia
HCC-2998 colon = tested on: HCC-2998 colon
SNB-19 CNS = tested on: SNB-19 CNS
SNB-75 CNS = tested on: SNB-75 CNS
EKVX NSCLC = tested on: EKVX NSCLC
NCI-H460 lung = tested on: NCI-H460 lung
HOP-92 NSCLC = tested on: HOP-92 NSCLC
HS 578T breast = tested on: HS 578T breast
UO-31 renal = tested on: UO-31 renal
OVCAR-5 ovarian = tested on: OVCAR-5 ovarian
ACHN renal = tested on: ACHN renal
MOLT-4 leukemia = tested on: MOLT-4 leukemia
PC-3 prostate = tested on: PC-3 prostate
SF-539 CNS = tested on: SF-539 CNS
SF-295 CNS = tested on: SF-295 CNS
RPMI-8226 leukemia = tested on: RPMI-8226 leukemia
SK-MEL-2 melanoma = tested on: SK-MEL-2 melanoma
HOP-62 NSCLC = tested on: HOP-62 NSCLC
SK-OV-3 ovarian = tested on: SK-OV-3 ovarian
786-0 renal = tested on: 786-0 renal
M14 melanoma = tested on: M14 melanoma
DU-145 prostate = tested on: DU-145 prostate
NCI-H226 lung = tested on: NCI-H226 lung
RXF 393 renal = tested on: RXF 393 renal
BT-549 breast = tested on: BT-549 breast
SK-MEL-28 melanoma = tested on: SK-MEL-28 melanoma
MDA-MB-435 = tested on: MDA-MB-435
SW-620 colon = tested on: SW-620 colon
CCRF-CEM leukemia = tested on: CCRF-CEM leukemia
U251 CNS = tested on: U251 CNS
UACC-257 melanoma = tested on: UACC-257 melanoma
KM12 colon = tested on: KM12 colon
HCT-15 colon = tested on: HCT-15 colon
OVCAR-4 ovarian = tested on: OVCAR-4 ovarian
SN12C renal = tested on: SN12C renal
CAKI-1 renal = tested on: CAKI-1 renal
HT29 colon = tested on: HT29 colon
A498 renal = tested on: A498 renal
K-562 leukemia = tested on: K-562 leukemia
NCI-H522 lung = tested on: NCI-H522 lung
UACC-62 melanoma = tested on: UACC-62 melanoma
LOX IMVI melanoma = tested on: LOX IMVI melanoma

## c1ccc(-c2cccc(-c3ccccn3)n2)nc1
TK-10 renal
  GI50: 59.5 nM
  TGI: 3000 nM and 7890 nM
IGROV1 ovarian
  GI50: 76.5 nM
  TGI: 2970 nM and 11700 nM
NCI-H23 lung
  TGI: > 10000 nM and 64200 nM
OVCAR-8 ovarian
  GI50: 145 nM
SF-268 CNS
  GI50: 81.4 nM
  TGI: > 10000 nM and 15800 nM
HCT-116 colon
  TGI: 1560 nM
OVCAR-3 ovarian
  GI50: 110 nM
SK-MEL-5 melanoma
  GI50: 122 nM
  TGI: 680 nM and 1180 nM
MALME-3M melanoma
  TGI: 1110 nM and 3480 nM
T-47D breast
  GI50: 343 nM
  TGI: > 10000 nM and 12700 nM
SR leukemia
  GI50: 60 nM
MDA-MB-231 breast
  GI50: 86 nM
  TGI: 1890 nM and 15200 nM
MDA-N
  TGI: 2190 nM
MCF7 breast
  TGI: > 10000 nM
A549 NSCLC
  GI50: 225 nM
  TGI: 4910 nM and 13000 nM
COLO 205 colon
  GI50: 37.6 nM
  TGI: 1670 nM and 5840 nM
NCI/ADR-RES ovarian
  GI50: 161 nM
  TGI: 1220 nM and 8760 nM
HL-60(TB) leukemia
  GI50: 112 nM
HCC-2998 colon
  GI50: 94.4 nM
SNB-19 CNS
  GI50: 293 nM
  TGI: > 10000 nM and 16700 nM
SNB-75 CNS
  GI50: 234 nM
  TGI: > 10000 nM and 17700 nM
EKVX NSCLC
  GI50: 111 nM
  TGI: 4890 nM and 10900 nM
NCI-H460 lung
  GI50: 60.4 nM
  TGI: 1350 nM and 2510 nM
HOP-92 NSCLC
  GI50: 3570 nM
  TGI: 19800 nM
HS 578T breast
  GI50: 2550 nM
  TGI: > 10000 nM and 47600 nM
UO-31 renal
  GI50: 37.3 nM
  TGI: 425 nM and 1290 nM
OVCAR-5 ovarian
  GI50: 403 nM
  TGI: 3720 nM and 22000 nM
ACHN renal
  GI50: 56.7 nM
  TGI: 1750 nM and 1890 nM
MOLT-4 leukemia
  GI50: 65.8 nM
  TGI: > 100000 nM
PC-3 prostate
  GI50: 170 nM
  TGI: 3760 nM and 15400 nM
SF-539 CNS
  GI50: 243 nM
  TGI: 2070 nM and 13300 nM
SF-295 CNS
  GI50: 78.5 nM
  TGI: 791 nM and 3870 nM
RPMI-8226 leukemia
  TGI: > 10000 nM and 95100 nM
SK-MEL-2 melanoma
  GI50: 425 nM
  TGI: 3640 nM and 18600 nM
HOP-62 NSCLC
  GI50: 130 nM
  TGI: 1720 nM and 12800 nM
SK-OV-3 ovarian
  GI50: 89.5 nM
  TGI: 2050 nM and 2420 nM
786-0 renal
  GI50: 113 nM
  TGI: 2870 nM and 2030 nM
M14 melanoma
  GI50: 92.4 nM
  TGI: 434 nM and 1070 nM
DU-145 prostate
  GI50: 86.3 nM
  TGI: 15600 nM
NCI-H226 lung
  GI50: 275 nM
  TGI: 4850 nM
RXF 393 renal
  TGI: 1410 nM and 7320 nM
BT-549 breast
  GI50: 225 nM
  TGI: 13600 nM
SK-MEL-28 melanoma
  GI50: 182 nM
  TGI: 3250 nM and 15000 nM
MDA-MB-435
  TGI: 2280 nM and 18400 nM
SW-620 colon
  GI50: 198 nM
  TGI: 4540 nM and 14000 nM
CCRF-CEM leukemia
  GI50: 58 nM
  TGI: > 100000 nM
U251 CNS
  GI50: 90.1 nM
  TGI: 2860 nM and 13400 nM
UACC-257 melanoma
  GI50: 337 nM
  TGI: 1650 nM and 5460 nM
KM12 colon
  GI50: 75.1 nM
  TGI: 2270 nM and 13700 nM
HCT-15 colon
  GI50: 54.6 nM
  TGI: 1400 nM and 2980 nM
OVCAR-4 ovarian
  GI50: 83.9 nM
  TGI: 3480 nM and 13700 nM
SN12C renal
  GI50: 220 nM
  TGI: 9770 nM and 16200 nM
CAKI-1 renal
  TGI: 1610 nM
HT29 colon
  GI50: 84.8 nM
  TGI: 3050 nM and 15700 nM
A498 renal
  GI50: 1380 nM
  TGI: 2310 nM and 3270 nM
K-562 leukemia
  TGI: > 100000 nM
NCI-H522 lung
  TGI: > 10000 nM and 19300 nM
UACC-62 melanoma
  GI50: 243 nM
  TGI: 2930 nM and 4240 nM
LOX IMVI melanoma
  GI50: 57.3 nM
  TGI: 12500 nM
